# “And” between values parts separate entries of the source, which are not always exact repeats. Identical values can stand only once.
# Test system: 556581-035-R-J1 tumor spheroid viability, % test/control
# Test: Anticancer human tumor 556581-035-R-J1 patient-derived ovarian carcinoma cell line growth inhibition
# Conditions: spheroids with HUVEC and MSC; for viability, T/C: stronger effect = lower value
# Text: Multicellular complex tumor spheroid response to DNA repair inhibitors in combination with DNA-damaging drugs
# This study explores the anticancer activities of DNA-damaging drugs and inhibitors of DNA damage repair, both as single agents and in combinations. Complex tumor spheroids comprised of malignant cells, endothelial cells and mesenchymal stem cells served as an in vitro model for human solid tumors. This model system incorporates physiologically relevant features and patient-derived or established malignant cell lines with clinically relevant genetic alterations from many tumor types. Twenty-six patient-derived or established malignant cell lines were evaluated representing sarcoma, melanoma, small cell lung cancer (SCLC), non-small cell lung cancer (NSCLC), as well as bladder, ovarian and pancreatic cancers. The concentration ranges selected for each drug and investigational agent were based upon clinically achievable concentrations if the clinical Cmax of the agent was known.
# Compounds. The drugs and compounds olaparib (NSC753686), talazoparib (NSC767125), berzosertib (NSC777718), elimusertib (NSC800525), nedisertib (NSC802822), VX-984 (NSC792969), AZD-1390 (NSC803789), temozolomide (NSC362856), topotecan (NSC609699), trabectedin (NSC813783), staurosporine (NSC755774), and gemcitabine (NSC613327) were obtained from the National Cancer Institute (NCI) Developmental Therapeutics Program Chemical Repository. The FDA-approved anticancer drug set is available from the Developmental Therapeutics Program at https://dtp.cancer.gov/organization/dscb/obtaining/available_plates.htm. […] The stock solutions were prepared in dimethyl sulfoxide (DMSO, Sigma-Aldrich, St. Louis, MO, cat. D2650) at 400-fold the tested concentration and stored at -70 degrees C. Prior to their use, the stock solutions were diluted in fresh medium and the final DMSO concentration in the assay was 0.25% (v/v). All drugs and investigational agents were tested over a range starting from a high concentration at or near the clinical Cmax and decreasing in half-log increments. If the clinical Cmax for an agent had not been determined, the highest concentration tested was 10 microM.
# Cell Lines. The patient-derived cancer cell (PDC) lines: 156681-154-R-J1-PDC, 283228-195-R-J1-PDC, 287954-098-R-J1-PDC, 292921-168-R-J2-PDC, 349418-098-R-PDC, 425362-245-T-J1-PDC, 556581-035-R-J1-PDC, and BL0293-F563-PDC were received from the NCI Patient-Derived Models Repository (PDMR, https://pdmr.cancer.gov). The established cell lines HS-SY-2 (RRID:CVCL_8719), MPNST, and SYO-1 (RRID:CVCL_7146) were obtained from the Sloan Kettering Institute. The alveolar soft parts sarcoma cell line ASPS-1 (RRID:CVCL_S738) was established at the NCI and grown from internal seed stocks. The following established cell lines were purchased from the American Type Culture Collection (ATCC, Manassas, VA): G-401 (ATCC, cat. CRL-1441, RRID:CVCL_0270), SW982 (ATCC, cat. HTB-93, RRID:CVCL_1734), VA-ES-BJ (ATCC, cat. CRL-2138, RRID:CVCL_1785), NCI-H719 (ATCC, cat. CRL-5837, RRID:CVCL_1582), NCI-H196 (ATCC, cat. CRL-5823, RRID:CVCL_1509), NCI-H841 (ATCC, cat. CRL-5845, RRID:CVCL_1595), NCI-H1618 (ATCC, cat. CRL-5879, RRID:CVCL_1480), NCI-H1876 (ATCC, cat. CRL-5902, RRID:CVCL_1503), DMS 114 (ATCC, cat. CRL-2066; RRID:CVCL_1174), NCI-H211 (ATCC, cat. CRL-5824; RRID:CVCL_1529), and SW 1271 (ATCC, cat. CRL-2177, RRID:CVCL_1716). The small cell lung cancer cell line COR-L88 was purchased from Sigma-Aldrich (cat. 92031917-1VL, RRID:CVCL_1141). The non-small cell lung cancer cell lines NCI-H226 (RRID:CVCL_1544) and NCI-H322M (RRID:CVCL_1557) were established at the NCI and grown from internal seed stocks. Pooled donor human umbilical vein endothelial cells (HUVEC, Lonza, cat. CC-2519) and human mesenchymal stem cells (hMSC, Lonza, cat. PT-2501) were purchased from Lonza (Walkersville, MD).
# Cell Culture. All cells were maintained in an incubator at 37 degrees C and 5% CO2 with 95% humidity. […]
# 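Further: spheroids exposed to compounds for 7 days before viability read.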
smiles,measurement,setting,value
CC(C)n1c(=O)n(C)c2cnc3cc(F)c(-c4ccc(OCCCN5CCCCC5)nc4)cc3c21 + Cn1nnc2c(C(N)=O)ncn2c1=O,IC50,"curve of first compound, second compound 1 µM",> 10 µM
same,IC50,"curve of first compound, second compound 3.16 µM",> 10 µM
same,IC50,"curve of first compound, second compound 10 µM",> 10 µM
same,IC50,"curve of first compound, second compound 31.6 µM",> 10 µM
same,IC50,"curve of first compound, second compound 100 µM",> 10 µM
same,"viability, T/C","second compound 1 µM, first compound 0.0316 µM",109%
same,"viability, T/C","second compound 1 µM, first compound 0.1 µM",109%
same,"viability, T/C","second compound 1 µM, first compound 0.316 µM",109%
same,"viability, T/C","second compound 1 µM, first compound 1 µM",106%
same,"viability, T/C","second compound 1 µM, first compound 3.16 µM",98.5%
same,"viability, T/C","second compound 1 µM, first compound 10 µM",70.2%
same,"viability, T/C","second compound 3.16 µM, first compound 0.0316 µM",101%
same,"viability, T/C","second compound 3.16 µM, first compound 0.1 µM",112%
same,"viability, T/C","second compound 3.16 µM, first compound 0.316 µM",101%
same,"viability, T/C","second compound 3.16 µM, first compound 1 µM",112%
same,"viability, T/C","second compound 3.16 µM, first compound 3.16 µM",96.6%
same,"viability, T/C","second compound 3.16 µM, first compound 10 µM",62.3%
same,"viability, T/C","second compound 10 µM, first compound 0.0316 µM",102%
same,"viability, T/C","second compound 10 µM, first compound 0.1 µM",109%
same,"viability, T/C","second compound 10 µM, first compound 0.316 µM",105%
same,"viability, T/C","second compound 10 µM, first compound 1 µM",104%
same,"viability, T/C","second compound 10 µM, first compound 3.16 µM",95.5%
same,"viability, T/C","second compound 10 µM, first compound 10 µM",67.3%
same,"viability, T/C","second compound 31.6 µM, first compound 0.0316 µM",108%
same,"viability, T/C","second compound 31.6 µM, first compound 0.1 µM",106%
same,"viability, T/C","second compound 31.6 µM, first compound 0.316 µM",103%
same,"viability, T/C","second compound 31.6 µM, first compound 1 µM",112%
same,"viability, T/C","second compound 31.6 µM, first compound 3.16 µM",92.7%
same,"viability, T/C","second compound 31.6 µM, first compound 10 µM",65.8%
same,"viability, T/C","second compound 100 µM, first compound 0.0316 µM",105%
same,"viability, T/C","second compound 100 µM, first compound 0.1 µM",106%
same,"viability, T/C","second compound 100 µM, first compound 0.316 µM",99.6%
same,"viability, T/C","second compound 100 µM, first compound 1 µM",101%
same,"viability, T/C","second compound 100 µM, first compound 3.16 µM",90.1%
same,"viability, T/C","second compound 100 µM, first compound 10 µM",69.1%
COc1cc(C)[nH]c(=O)c1CN1CCc2c(Cl)cc(C(OC)C3COC3)c(Cl)c2C1=O (configuration not stated),"viability, T/C",compound 0.0316 µM,103% and 105% and 98.8%
same,"viability, T/C",compound 0.1 µM,110% and 101% and 105%
same,"viability, T/C",compound 0.316 µM,107% (2×) and 99.8%
same,"viability, T/C",compound 1 µM,111% and 108% and 102%
same,"viability, T/C",compound 3.16 µM,114% and 107% and 96.9%
same,"viability, T/C",compound 10 µM,106% and 99.4% and 98.3%
same,IC50,curve of compound,> 10 µM

# From PubChem BioAssay AID1845199 (Molecular Pharmacology Branch, DTP, NCI, 2023)
